Laboratory results as given in patent EP0891991A2, “Tris(pentafluorophenyl)borate complexes and catalysts derived therefrom” (MINNESOTA MINING AND MANUFACTURING COMPANY, priority 1995, dated 1996).

Assay: Stability of tris(pentafluorophenyl)borane hydrates
Type: physicochemical
Conditions: in solution or in the solid state
Excerpt: Of the class of compounds of the type (C6F5)3B-(YXH)q, when Y is hydrogen, X is oxygen, and q is 1 or 3, the complex with water is a special case. Exposure of anhydrous (C6F5)3B to water vapor, produces (C6F5)3B·3H2O, a white, stable solid. No intermediate hydrate was detected by infrared spectroscopic analysis. […] Formation of a trihydrate was unexpected because all other previously known (C6F5)3B complexes with Lewis bases have a 1:1 stoichiometry. Vacuum sublimation of the trihydrate produced a mixture of the monohydrate and (C6F5)3B. The pure monohydrate, (C6F5)3B·H2O, however may be obtained by combining in organic solvents, such as toluene or chloroform, one equivalent of (C6F5)3B·3H2O with two equivalents of (C6F5)3B followed by evaporation of the solvent. This conproportionation reaction is a convenient way of synthesizing the monohydrate as needed. […] The monohydrate may also be prepared by combining one mole each of water and (C6F5)3B.

With Fc1c(F)c(F)c(B(c2c(F)c(F)c(F)c(F)c2F)c2c(F)c(F)c(F)c(F)c2F)c(F)c1F.O [Example 2] the stability was “unstable and slowly decomposes”.
